Experiment [1] has as its target Transthyretin (Homo sapiens, UniProt P02766, V50M). In words: Stabilization of TTR V30M mutant (unknown origin) assessed as inhibition of protein-mediated amyloid fibril formation.
Experiment [2] addresses Transthyretin (Homo sapiens, UniProt P02766). In words: Binding affinity to wild type TTR (unknown origin) expressed in Escherichia coli BL21/DE3 by Circular dichroism spectroscopy. A general note: Circular dichroism is the unequal absorption of left and right circularly polarised light.

This note sets out measurements from ChEMBL document CHEMBL4706567, “Transthyretin Amyloidogenesis Inhibitors: From Discovery to Current Developments” (J Med Chem, 2020).

A word on the Kd: it is the free concentration of one partner at which half of the binding sites on the other are occupied at equilibrium, for simple one-to-one binding.

As for `COc1cc(O)c(CC=C(C)C)c(O)c1C(=O)/C=C/c1ccc(O)cc1` [XANTHOHUMOL], the Kd in experiment [1] was found to be 12 µM. Regarding `O=C(CCc1ccc(O)cc1)c1c(O)cc(O)cc1O` [PHLORETIN], the Kd in experiment [1] is 8.1 µM. As to `O=C(O)c1ccccc1Nc1cccc(C(F)(F)F)c1` [FLUFENAMIC ACID], the Kd in experiment [2] worked out at 0.03 µM. `O=C(O)Cc1ccccc1Nc1c(Cl)cccc1Cl` [DICLOFENAC]: the Kd in experiment [2] came to 0.06 µM.
